Measured values reported in article PMC2362044, “A potent nonporphyrin class of photodynamic therapeutic agent: cellular localisation, cytotoxic potential and influence of hypoxia” (British Journal of Cancer, 2005).
Read-outs that look alike come from different tables or passages of the source.

How the values were obtained:
MCF-7 cells = assay: Colorimetric survival (MTT) assay after photo-irradiation, normoxia; type: cell-based; details: Homo sapiens, MCF7, MCF-7, 3 h incubation
Description: (§1) All cell lines unless otherwise stated were obtained from the American Type Culture Collection. HeLa, MRC5, HT-1080, MDA-MB-231, MCF-7 and T47-D cells were cultured in minimum essential medium (MEM) supplemented with 10% (v v^−1) foetal calf serum (FCS), 1% (v v^−1) non-essential amino acids, 50 U ml^−1 penicillin, 50 μg ml^−1 streptomycin, 20 mM HEPES and 1% (v v^−1) L-glutamine (Gibco-BRL). SW480, SW620 (obtained from Professor D Croke, Royal College of Surgeons, Dublin), A2780 and A2780cp70 cells (Obtained from Professor R Brown, Cancer Research UK, Beatson Laboratories, Glasgow) were cultured in RPMI-1640 medium plus the above-mentioned supplements. All cells were maintained in 5% CO2 (v v^−1) and 21% O2 (v v^−1) at 37°C unless otherwise stated.
(§2) Cells were seeded in 96-well flat-bottomed microtitre plates (5000 cells well^−1) and incubated at 37°C in a 5% CO2 incubator for 24 h. Cells were then incubated with varying concentrations of photosensitiser (1 × 10^−9 to 1 × 10^−4 M) in the dark for 3 h at 37°C. The ADPM compound-laden medium was then removed, the cells were washed with PBS and fresh culture medium was added to each well. This was followed by light irradiation with a broad-spectrum red light source (600–750 nm) via a Waldmann PDT1200L light delivery system. For this study, fluences (light exposures) of either 8 or 16 J cm^−2, at a dose rate of 80 mW cm^−2, were used. Following irradiation, the cells were incubated for a further 48 h before being assessed for cell viability by a standard MTT assay (Sigma). The subsequent colour change produced by viable cells was quantified using a plate reader (VICTOR^2 1420 multilabel HTS counter, Wallac). […] The dark toxicity of each compound was also assessed.
(§3) Prism ([…]) was used to graph the data obtained from the MTT assays and the uptake/clearance experiments. This program allows nonlinear regression analysis and the generation of sigmoidal dose–response curves. Prism also automatically calculates EC50 values. Statistical analysis was performed using the ANOVA test (Prism). Significant differences were detected using the Bonferroni multiple comparison test. P-values <0.05 were considered statistically significant.

MDA-MB-231 cells = assay: as above; type: cell-based; details: Homo sapiens, MDA-MB-231, 3 h incubation
Description: as §1, §2, §3

MRC-5 cells = assay: as above; type: cell-based; details: Homo sapiens, MRC5, MRC-5, normoxia 21% oxygen, 3 h incubation
Description: as §1, §2, §3

SW480 cells = assay: as above; type: cell-based; details: Homo sapiens, SW480, 3 h incubation
Description: as §1, §2, §3

human tumour cell lines = assay: Light-induced toxicity (MTT) assays over a broad range of cell lines; type: cell-based; details: for EC50: Homo sapiens, read-out: EC50 values, range between the different cell lines; for EC50 values, light-induced toxicity (in words): broad range of human tumour cell lines
Description: as §1, §2, §3

HeLa cells [1] = assay: Cellular uptake and clearance (fluorescence microscopy); type: cell-based, human
Description: (§4) Cells were seeded at 30 000 cells well^−1 in chamber slides and allowed to adhere for 24 h. For the uptake studies, ADPM01 (1 × 10^−5 M) was then added to each chamber and incubated at 37°C in the dark. Following appropriate incubation periods (5 min–6 h), the cells were washed four times with media to remove all free photosensitisers. The cells were then fixed with 3.7% formaldehyde/PBS for 15 min at 37°C, after which the cells were washed twice with PBS. Mounting fluid (Vectashield) and a coverslip were then placed on each slide. […] In this case, the cells were fixed at various time points (15 min – 24 h) after removal of the drug. The slides were then viewed using an Axio fluorescent microscope (Zeiss). A DAPI filter (Band pass 356) was used to accurately count the number of cells in each field of view and a rhodamine filter (Long pass 590) was used to quantify fluorescence from ADPM01. LabWorks version 4.0 (Bioimaging Systems) was used to calculate the average fluorescence intensity of ADPM01 per cell.
as §3

MRC5 cells = assay: as above; type: cell-based, human; details: MRC-5, 1 × 10^−5 M for 3 h, then drug removed
Description: as §4, §3

HeLa cells [2] = assay: Subcellular localisation by confocal laser-scanning microscopy; type: cell-based, human; details: 1 × 10^−5 M, 1 h
Description: Cells, grown on eight-well chamber slides (Nunc), were incubated in the dark at 37°C with 1 × 10^−5 M ADPM01 for 1 h. The medium was removed and the cells then treated with 250 nM MitoTracker Green (Molecular Probes) or 100 nM ER Tracker Blue (Molecular Probes) for 25 min. Prior to visualisation, excess probe was washed off by rinsing in PBS four times and cells were fixed in 3.7% formaldehyde/PBS. Cells were mounted as above and image analysis was performed using a LSM510 META confocal laser-scanning microscope (Zeiss) equipped with an × 40 numerical aperture 1.0 objective, with a pinhole of 100 μm in diameter being used to capture each image at a resolution of 512 × 512 pixels. MitoTracker Green was excited by a 488 nm argon laser and ER Tracker Blue was excited by a UV laser (364 nm), while ADPM01 was excited by a 543 nm helium neon laser. For simultaneous detection of MitoTracker Green and ADPM01, a 560 nm long pass filter was used in channel 1 (red) for ADPM01, while a 505–530 nm band pass filter was used in channel 2 (green) for MitoTracker Green. For dual detection of ER Tracker Blue and ADPM01, a long pass filter of 560 nm was used in channel 1 (red) for ADPM01 and a 385–470 nm band pass filter was used in channel 2 (blue) for ER Tracker Blue. […]

[3] = set-up: method as in Gorman et al, 2004; details: ref Gorman et al, 2004, cited from earlier work; for strong absorbance band: formulated in CrEL/PBS
[4] = 0 J cm^−2, read-out: EC50 (M) (dark)
[5] = 8 J cm^−2, read-out: EC50 (M) (8 J cm^−2)
[6] = 16 J cm^−2, read-out: EC50 (M) (16 J cm^−2)
[7] = 8 J cm^−2, all cell lines of Table 1
[8] = 16 J cm^−2, all cell lines of Table 1

Row | SMILES | EC50 (MCF-7 cells; [5]) [M] | EC50 (MCF-7 cells; [6]) [M] | EC50 (MDA-MB-231 cells; [5]) [M] | EC50 (MDA-MB-231 cells; [6]) [M] | EC50 (MRC-5 cells; [4]) [M] | EC50 (MRC-5 cells; [5]) [M] | EC50 (MRC-5 cells; [6]) [M] | EC50 (SW480 cells; [5]) [M] | EC50 (SW480 cells; [6]) [M] | EC50 (human tumour cell lines; [7]) [nM] | EC50 (human tumour cell lines; [8]) [nM] | EC50 values, light-induced toxicity (in words) (human tumour cell lines) | strong absorbance band [3] [nm] | fluorescence quantum yield (Φf) [3] | further results
1 | F[B-]1(F)n2c(-c3ccccc3)cc(-c3ccccc3)c2N=C2C(c3ccccc3)=CC(c3ccccc3)=[N+]21 [ADPM01] | 3.4e-06 | 1.9e-06 | 5.6e-06 | 2.6e-07 | > 0.0001 | 3.1e-06 | 5e-07 | 7.6e-06 | 8e-07 | 2800 to 34000 | 260 to 22000 | micro-molar range | 658 | 0.34 | EC50 (MCF-7 cells; [4]): > 0.0001 M; EC50 (MDA-MB-231 cells; [4]): 1.2e-05 M; EC50 (SW480 cells; [4]): > 0.0001 M; retention at 3 h post-withdrawal (clearance) (HeLa cells [1]; 1 × 10^−5 M for 3 h, then drug removed): 42%; cellular uptake, accumulated by 3 h (HeLa cells [1]; 1 × 10^−5 M, 37°C in the dark, 6 h period): > 90%; retention 3 h post-withdrawal (clearance) (MRC5 cells): 74%; co-localisation with endoplasmic reticulum (ER Tracker Blue) (HeLa cells [2]): more striking co-localisation
2 | COc1ccc(C2=[N+]3C(=Nc4c(-c5ccccc5)c(Br)c(-c5ccc(OC)cc5)n4[B-]3(F)F)C(c3ccccc3)=C2Br)cc1 [ADPM06] | 1.2e-07 | 7.5e-08 | 1.4e-07 | 7.5e-08 | > 0.0001 | 3.7e-08 | 1.4e-08 | 5.4e-06 | 4.2e-08 | 37 to 5400 | 14 to 630 | nano-molar range | 683 | 0.1 | –
